One assay has as its target EGFR L858R (Homo sapiens, UniProt P00533, L858R). Nature of the assay: HTRF-based EGFR biochemical assay, L858R enzyme. The conditions noted are these: L858R 0.1 nM enzyme, 100 μM ATP, 30 min preincubation, read-out: LR enzyme IC50. The method, then:
(§1) EGFR biochemical activity measurements were carried out using the homogeneous time-resolved fluorescence (HTRF) assay (Cisbio). Inhibitors and DMSO normalizations were first dispensed to empty black low-volume 384-well plates (Corning) with D300 digital liquid dispenser (HP). All reactions were carried out at room temperature and solutions were added to plates with a Multidrop Combi Reagent Dispenser (ThermoFisher). The reaction mixture (10 μL final volume) contained 1 μM tyrosine kinase peptide-biotin substrate and mutant EGFR in a reaction buffer (50 mM HEPES pH 7.0, 5 mM MgCl2,1 mM MnCl2, 0.01% BSA, 2 mM TCEP, 0.1 mM NaVO4). Enzyme concentrations were adjusted to accommodate varying kinase activities (L858R 0.1 nM, L858R/T790M 0.02 nM). Enzyme reaction solution (2× concentrations, 5 μL) was added to 384-well plates containing compounds and incubated for 30 mins. Enzyme reactions were initiated with the addition of 5 μL of ATP to a final concentration of 100 μM and reacted for 20 mins. Reactions were quenched with the addition of 10 μL of phospho-tyrosine antibody-Europium(III) cryptate (1-to-180 volume ratio) and Streptavidin-XL665 (46.7 nM) in EDTA-containing detection buffer, then incubated at room temperature for 1 hour, and read with a PHERAstar plate reader (excitation=337 nm, emission=620 nm and 665 nm). IC50 values were determined by inhibition curves (11-point curves from 1.0 μM to 0.130 nM or 23-point curves from 1.0 μM to […]) in triplicate with non-linear least squares fit in GraphPad Prism 7.0d. The data obtained are shown in Table 2 below where “−” is indicative of an IC50 value of >5 nM “+” is indicative of an IC50 value of <5 nM, “++” is indicative of an IC50 value of <1 nM, and “+++” is indicative of an IC50 value of <0.5 nM.

The target in a further assay is EGFR L858R/T790M (Homo sapiens, UniProt P00533, L858R/T790M). Nature of the assay: HTRF-based EGFR biochemical assay, L858R/T790M enzyme. The note with it: L858R/T790M 0.02 nM enzyme, 100 μM ATP, 30 min preincubation, read-out: LRTM enzyme IC50. The method, then:
as §1
For orientation: In TR-FRET formats the signal depends on donor and acceptor labels being close together.

In assay [1] the target is EGFR mutant L858R/T790M Ba/F3 cells (Homo sapiens, UniProt P00533, T790M/L858R, cells depend on it). Nature of the assay: Ba/F3 cell proliferation (Cell Titer Glo), EGFR L858R/T790M. The class given is cell-based, murine. The conditions noted are these: 72 hours, read-out: BaF3 cell L858R/T790M. The text has this:
(§2) The EGFR mutant L858R and L858R/T790M Ba/F3 cells have been previously described (Zhou, W., et al. Nature 462, 2009, 1070-1074). All cell lines were maintained in RPMI 1640 (Cellgro; Mediatech Inc., Herndon, CA) supplemented with 10% FBS, 100 units/mL penicillin, 100 units/mL streptomycin. The EGFR 1941R mutation was introduced via site directed mutagenesis using the Quick Change Site-Directed Mutagenesis kit (Stratagene; La Jolla, CA) according to the manufacturer's instructions. All constructs were confirmed by DNA sequencing. The constructs were shuttled into the retroviral vector JP1540 using the Cre-recombination system (Agilent Technologies, Santa Clara, CA). Ba/F3 cells were then infected with retrovirus per standard protocols, as described previously (Zhou, et al, Nature 2009). Stable clones were obtained by selection in puromycin (2 μg/ml).
(§3) Growth and inhibition of growth was assessed by the Cell Titer Glo assay (Promega, Madison, WI) and was performed according to the manufacturer's instructions. The Cell Titer Glo assay is a luminescence-based method used to determine the number of viable cells based on quantitation of the ATP present, which is directly proportional to the amount of metabolically active cells present. Ba/F3 cells of different EGFR genotypes were exposed to the compounds disclosed herein for 72 hours and the number of cells used per experiment was determined empirically as has been previously established (Zhou, et al., Nature 2009). All experimental points were set up in triplicates in 384-well plates and all experiments were repeated at least three times. […] The curves were fitted using a non-linear regression model with a sigmoidal dose response.
In general terms: In ATP-based viability assays light output follows the ATP content of the culture.

For assay [2], the target named is EGFR mutant L858R Ba/F3 cells (Homo sapiens, UniProt P00533, L858R, cells depend on it). Nature of the assay: Ba/F3 cell proliferation (Cell Titer Glo), EGFR L858R. It is filed as cell-based, murine. The conditions noted are these: 72 hours, read-out: BaF3 cell L858R IC50.
Sequence of EGFR mutant L858R Ba/F3 cells (P00533 whole entry L858R): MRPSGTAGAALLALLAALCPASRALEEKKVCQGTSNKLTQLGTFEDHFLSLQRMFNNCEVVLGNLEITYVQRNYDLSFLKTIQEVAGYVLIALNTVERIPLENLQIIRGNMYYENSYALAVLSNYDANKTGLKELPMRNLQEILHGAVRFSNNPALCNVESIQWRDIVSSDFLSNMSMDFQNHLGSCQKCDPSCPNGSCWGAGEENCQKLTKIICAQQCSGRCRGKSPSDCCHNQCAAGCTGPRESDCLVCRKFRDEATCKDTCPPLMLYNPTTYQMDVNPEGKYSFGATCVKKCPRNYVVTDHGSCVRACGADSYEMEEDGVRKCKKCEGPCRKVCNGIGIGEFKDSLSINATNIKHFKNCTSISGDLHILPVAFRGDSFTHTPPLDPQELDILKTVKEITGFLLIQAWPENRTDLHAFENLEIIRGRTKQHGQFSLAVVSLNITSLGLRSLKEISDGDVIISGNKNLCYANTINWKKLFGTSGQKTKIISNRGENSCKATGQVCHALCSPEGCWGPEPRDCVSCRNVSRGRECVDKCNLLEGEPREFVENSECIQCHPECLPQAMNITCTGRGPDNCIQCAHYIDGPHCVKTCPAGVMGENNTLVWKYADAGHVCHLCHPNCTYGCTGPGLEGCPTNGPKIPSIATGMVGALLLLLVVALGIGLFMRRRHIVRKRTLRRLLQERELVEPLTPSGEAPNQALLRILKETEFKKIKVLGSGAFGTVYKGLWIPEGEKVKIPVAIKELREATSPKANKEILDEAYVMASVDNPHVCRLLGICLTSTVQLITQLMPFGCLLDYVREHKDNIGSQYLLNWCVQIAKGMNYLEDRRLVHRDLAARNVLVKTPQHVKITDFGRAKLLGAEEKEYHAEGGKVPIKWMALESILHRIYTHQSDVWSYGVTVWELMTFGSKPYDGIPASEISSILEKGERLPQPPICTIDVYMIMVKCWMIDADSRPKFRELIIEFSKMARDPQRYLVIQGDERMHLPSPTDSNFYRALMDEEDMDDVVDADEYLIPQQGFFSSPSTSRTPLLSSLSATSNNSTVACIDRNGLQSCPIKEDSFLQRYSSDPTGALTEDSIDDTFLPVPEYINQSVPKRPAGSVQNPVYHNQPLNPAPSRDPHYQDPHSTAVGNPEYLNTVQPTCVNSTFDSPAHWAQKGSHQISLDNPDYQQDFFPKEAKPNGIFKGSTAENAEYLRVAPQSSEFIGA
Text: as §2, §3

Sequence of EGFR L858R (P00533 25-1210 L858R): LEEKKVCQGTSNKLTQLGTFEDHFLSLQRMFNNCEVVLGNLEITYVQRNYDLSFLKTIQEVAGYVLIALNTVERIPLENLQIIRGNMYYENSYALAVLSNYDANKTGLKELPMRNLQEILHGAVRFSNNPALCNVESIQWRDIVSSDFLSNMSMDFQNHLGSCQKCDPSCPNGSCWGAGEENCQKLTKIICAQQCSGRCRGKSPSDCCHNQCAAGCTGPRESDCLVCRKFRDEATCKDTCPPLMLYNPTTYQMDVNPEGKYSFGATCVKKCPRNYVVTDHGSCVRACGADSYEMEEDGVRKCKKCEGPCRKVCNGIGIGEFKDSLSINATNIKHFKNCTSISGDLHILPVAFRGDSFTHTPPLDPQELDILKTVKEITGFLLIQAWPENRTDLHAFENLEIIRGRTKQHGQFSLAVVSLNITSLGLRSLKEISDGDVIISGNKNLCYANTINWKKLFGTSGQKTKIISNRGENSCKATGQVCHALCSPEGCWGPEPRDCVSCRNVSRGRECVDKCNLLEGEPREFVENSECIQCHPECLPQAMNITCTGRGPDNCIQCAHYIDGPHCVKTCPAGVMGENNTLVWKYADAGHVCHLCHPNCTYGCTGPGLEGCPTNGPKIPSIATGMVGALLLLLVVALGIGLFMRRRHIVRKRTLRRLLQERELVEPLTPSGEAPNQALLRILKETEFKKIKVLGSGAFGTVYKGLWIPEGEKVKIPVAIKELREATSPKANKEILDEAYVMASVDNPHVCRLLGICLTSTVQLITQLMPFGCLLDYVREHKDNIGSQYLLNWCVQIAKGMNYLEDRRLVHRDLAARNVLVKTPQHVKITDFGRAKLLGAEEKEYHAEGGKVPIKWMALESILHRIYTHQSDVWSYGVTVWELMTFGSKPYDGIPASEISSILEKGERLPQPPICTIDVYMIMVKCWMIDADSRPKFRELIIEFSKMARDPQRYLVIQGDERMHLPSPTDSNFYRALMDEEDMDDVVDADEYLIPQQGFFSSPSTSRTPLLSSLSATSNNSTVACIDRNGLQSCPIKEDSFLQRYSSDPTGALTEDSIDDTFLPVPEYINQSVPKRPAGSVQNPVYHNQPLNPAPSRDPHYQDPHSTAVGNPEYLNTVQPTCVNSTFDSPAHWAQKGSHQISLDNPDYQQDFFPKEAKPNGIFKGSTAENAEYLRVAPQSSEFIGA
Sequence of EGFR L858R/T790M (P00533 25-1210 T790M/L858R): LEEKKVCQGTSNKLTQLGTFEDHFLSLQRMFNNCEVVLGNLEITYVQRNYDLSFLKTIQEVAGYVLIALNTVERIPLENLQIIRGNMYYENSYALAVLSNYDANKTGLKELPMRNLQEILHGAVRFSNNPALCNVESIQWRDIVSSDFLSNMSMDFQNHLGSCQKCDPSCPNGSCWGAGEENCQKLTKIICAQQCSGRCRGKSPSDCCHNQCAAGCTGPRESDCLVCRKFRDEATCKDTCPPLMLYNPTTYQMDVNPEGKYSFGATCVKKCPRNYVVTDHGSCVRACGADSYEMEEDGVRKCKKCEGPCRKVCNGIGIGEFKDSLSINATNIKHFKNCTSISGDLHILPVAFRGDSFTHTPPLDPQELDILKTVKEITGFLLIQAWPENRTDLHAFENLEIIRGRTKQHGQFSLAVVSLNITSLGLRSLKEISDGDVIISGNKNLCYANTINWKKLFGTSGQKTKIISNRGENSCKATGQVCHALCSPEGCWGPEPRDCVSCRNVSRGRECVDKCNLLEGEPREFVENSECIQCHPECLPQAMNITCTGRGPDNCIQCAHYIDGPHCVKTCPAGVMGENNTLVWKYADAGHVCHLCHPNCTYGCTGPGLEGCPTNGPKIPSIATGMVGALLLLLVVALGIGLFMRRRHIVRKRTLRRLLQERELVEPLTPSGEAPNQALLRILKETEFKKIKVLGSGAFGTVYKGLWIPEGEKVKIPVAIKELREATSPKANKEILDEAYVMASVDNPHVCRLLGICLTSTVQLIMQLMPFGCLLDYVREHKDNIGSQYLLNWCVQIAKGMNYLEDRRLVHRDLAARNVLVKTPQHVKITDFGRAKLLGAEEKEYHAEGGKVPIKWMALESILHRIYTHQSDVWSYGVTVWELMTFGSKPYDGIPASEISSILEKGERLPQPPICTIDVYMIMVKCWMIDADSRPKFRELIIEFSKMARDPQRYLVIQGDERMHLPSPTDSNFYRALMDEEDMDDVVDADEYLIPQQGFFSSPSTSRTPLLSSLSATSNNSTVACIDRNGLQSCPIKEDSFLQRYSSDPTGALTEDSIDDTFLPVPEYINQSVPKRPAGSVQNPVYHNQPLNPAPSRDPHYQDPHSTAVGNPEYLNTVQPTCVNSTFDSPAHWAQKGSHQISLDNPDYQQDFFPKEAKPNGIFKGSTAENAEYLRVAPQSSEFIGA
Sequence of EGFR mutant L858R/T790M Ba/F3 cells (P00533 whole entry T790M/L858R): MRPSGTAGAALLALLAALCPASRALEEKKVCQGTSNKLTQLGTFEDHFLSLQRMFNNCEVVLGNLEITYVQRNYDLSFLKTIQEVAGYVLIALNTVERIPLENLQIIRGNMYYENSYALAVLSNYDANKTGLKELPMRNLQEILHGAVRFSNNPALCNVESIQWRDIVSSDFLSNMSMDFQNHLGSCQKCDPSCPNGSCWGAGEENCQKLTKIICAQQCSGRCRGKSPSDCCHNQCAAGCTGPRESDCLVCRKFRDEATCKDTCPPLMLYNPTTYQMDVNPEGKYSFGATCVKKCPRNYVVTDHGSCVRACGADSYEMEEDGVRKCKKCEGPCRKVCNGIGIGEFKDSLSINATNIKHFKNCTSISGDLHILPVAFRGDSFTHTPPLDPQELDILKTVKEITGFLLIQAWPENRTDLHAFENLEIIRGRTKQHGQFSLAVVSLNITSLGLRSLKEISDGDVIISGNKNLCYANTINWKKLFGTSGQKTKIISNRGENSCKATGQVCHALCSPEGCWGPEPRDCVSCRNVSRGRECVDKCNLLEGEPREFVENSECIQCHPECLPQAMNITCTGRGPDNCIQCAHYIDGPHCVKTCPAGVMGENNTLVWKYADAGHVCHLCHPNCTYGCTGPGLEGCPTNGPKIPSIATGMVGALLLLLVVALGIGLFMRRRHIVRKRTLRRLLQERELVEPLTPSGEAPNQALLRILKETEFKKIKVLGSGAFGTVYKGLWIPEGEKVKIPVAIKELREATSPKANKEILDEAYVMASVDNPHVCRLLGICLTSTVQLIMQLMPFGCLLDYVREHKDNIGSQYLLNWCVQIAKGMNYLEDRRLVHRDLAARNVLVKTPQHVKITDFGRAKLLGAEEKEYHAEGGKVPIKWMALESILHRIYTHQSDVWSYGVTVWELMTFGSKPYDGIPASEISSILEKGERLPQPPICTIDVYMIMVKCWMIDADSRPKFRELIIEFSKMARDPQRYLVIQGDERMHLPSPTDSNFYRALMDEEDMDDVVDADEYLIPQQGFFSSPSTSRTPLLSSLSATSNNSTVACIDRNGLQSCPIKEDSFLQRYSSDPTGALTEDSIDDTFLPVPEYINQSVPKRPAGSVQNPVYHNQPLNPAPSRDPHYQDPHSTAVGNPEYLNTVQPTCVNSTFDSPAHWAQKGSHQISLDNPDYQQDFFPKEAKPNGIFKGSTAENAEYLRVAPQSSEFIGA

For orientation: IC50 means the midpoint of a concentration-inhibition curve. For `CN1CCN(c2ccc(-c3ccc4ncn(C(C(=O)Nc5nccs5)c5ncn6c5CCC6)c(=O)c4c3)cc2)CC1` (centres unmarked) [Compound 007, 2-(6,7-Dihydro-5H-pyrrolo[1,2-c]imidazol-1-yl)-2-(6-(4-(4-methylpiperazin-1-yl)phenyl)-4-oxoquinazolin-3(4H)-yl)-N-(thiazol-2-yl)acetamide], the IC50 on EGFR L858R was over 5 nM; at EGFR L858R/T790M it was under 5 nM. The GI50 in assay [1] and in assay [2] was under 5000 nM each time.
Turning to `CN1CCC(c2ccc(-c3ccc4c(c3)C(=O)N(C(C(=O)Nc3nccs3)c3ncn5c3CCC5)CO4)cc2)CC1` (centres unmarked) [Compound 008, 2-(6,7-Dihydro-5H-pyrrolo[1,2-c]imidazol-1-yl)-2-(6-(4-(1-methylpiperidin-4-yl)phenyl)-4-oxo-2H-benzo[e][1,3]oxazin-3(4H)-yl)-N-(thiazol-2-yl)acetamide], the IC50 is under 5 nM at EGFR L858R and under 0.5 nM at EGFR L858R/T790M. Besides, the GI50 in assay [1] is under 100 nM; in assay [2] it was under 500 nM.
Take `CN1CCC(c2ccc(-c3cc(F)c4c(=O)n(C(C(=O)Nc5nccs5)c5ncn6c5CCC6)ccc4c3)cc2)CC1` (centres unmarked) [Compound 001, 2-(6,7-Dihydro-5H-pyrrolo[1,2-c]imidazol-1-yl)-2-(8-fluoro-6-(4-(1-methylpiperidin-4-yl)phenyl)-1-oxoisoquinolin-2(1H)-yl)-N-(thiazol-2-yl)acetamide]: the 50% inhibitory concentration (IC50) is under 5 nM at EGFR L858R and under 0.5 nM on EGFR L858R/T790M. Further, the values for the GI50 in assay [1] and in assay [2] were under 100 nM and under 500 nM, respectively.
Turning to `CN1CCC(c2ccc(-c3cc(F)c4c(=O)n(C(C(=O)Nc5nccs5)c5ncn6c5C[C@@H](F)C6)ccc4c3)cc2)CC1` (stereo partly drawn) [Compound 002, 2-((R)-6-Fluoro-6,7-dihydro-5H-pyrrolo[1,2-c]imidazol-1-yl)-2-(8-fluoro-6-(4-(1-methylpiperidin-4-yl)phenyl)-1-oxoisoquinolin-2(1H)-yl)-N-(thiazol-2-yl)acetamide], the half-maximal inhibitory concentration (IC50) on EGFR L858R was under 5 nM; at EGFR L858R/T790M it was under 1 nM. Moreover, the GI50 in assay [1] and in assay [2] was under 500 nM in each case.
For the molecule `CN1CCC(c2ccc(-c3ccc4ncn(C(C(=O)Nc5nccs5)c5ncn6c5CCC6)c(=O)c4c3)cc2)CC1` (centres unmarked) [Compound 005, 2-(6,7-Dihydro-5H-pyrrolo[1,2-c]imidazol-1-yl)-2-(6-(4-(1-methylpiperidin-4-yl)phenyl)-4-oxoquinazolin-3(4H)-yl)-N-(thiazol-2-yl)acetamide], the IC50 on EGFR L858R is under 1 nM; on EGFR L858R/T790M it was under 0.5 nM. For the same molecule, the GI50 is under 100 nM in assay [1] and under 500 nM in assay [2].
The matching figures for `CN1CCC(c2ccc(-c3cc4ccn(C(C(=O)Nc5nccs5)c5ncn6c5C[C@@H](F)C6)c(=O)c4s3)cc2)CC1` (stereo partly drawn) [Compound 004, 2-((R)-6-Fluoro-6,7-dihydro-5H-pyrrolo[1,2-c]imidazol-1-yl)-2-(2-(4-(1-methylpiperidin-4-yl)phenyl)-7-oxothieno[2,3-c]pyridin-6(7H)-yl)-N-(thiazol-2-yl)acetamide]: under 5 nM, under 0.5 nM, under 500 nM and under 5000 nM.
The matching figures for `CN1CCC(c2ccc(-c3cc4ccn(C(C(=O)Nc5nccs5)c5ncn6c5CCC6)c(=O)c4s3)cc2)CC1` (centres unmarked) [Compound 003, 2-(6,7-Dihydro-5H-pyrrolo[1,2-c]imidazol-1-yl)-2-(2-(4-(1-methylpiperidin-4-yl)phenyl)-7-oxothieno[2,3-c]pyridin-6(7H)-yl)-N-(thiazol-2-yl)acetamide]: under 5 nM, under 0.5 nM, under 100 nM and under 500 nM.
For `CN1CCC(c2ccc(-c3ccc4ncn(C(C(=O)Nc5nccs5)c5ncn6c5CCC6)c(=O)c4c3F)cc2)CC1` (centres unmarked) [Compound 006, 2-(6,7-Dihydro-5H-pyrrolo[1,2-c]imidazol-1-yl)-2-(5-fluoro-6-(4-(1-methylpiperidin-4-yl)phenyl)-4-oxoquinazolin-3(4H)-yl)-N-(thiazol-2-yl)acetamide], in that order: under 5 nM, under 0.5 nM, under 100 nM and under 500 nM.

The values are drawn from patent US20260216195A1, “MUTANT-SELECTIVE EGFR INHIBITORS” (Dana-Farber Cancer Institute, Inc., priority 2023, published 2026).
